Test results reported in patent publication US20070055448A1, “Primary rat hepatocyte toxicity modeling” (Gene Logic Inc., priority 2003, published 2007).
Blank lines part the entries; values can stand above or below the molecule they belong to.

Legend:
[1] = AY-25329 repeated-dose rat study: serum chemistry and light microscopy; assay type: in vivo, rats
From the text: The present inventors have noted indications of liver and renal effects of AY-25329 by changes in serum chemistry. […] Most of these markers of renal and liver dysfunction remained altered throughout the 14 day study period.

[2] = 0.1, 1, 2, 3, 4 mL/kg ip; 2.5 mL/kg po; peak within 48 hours post dose; cited from earlier work
[3] = dogs, after treatment; cited from earlier work
[4] = 180 reported cases; cited from earlier work
[5] = oral doses; cited from earlier work
[6] = Lovastatin rat dosing study: liver tissue examination; assay type: in vivo, rats
[7] = human, in vivo; cited from earlier work

Structure (SMILES): O=C(CCN1CCN2CCCC2C1)N1c2ccccc2Sc2ccc(Cl)cc21 (stereo not shown) [AY-25329]
histopathology of kidney and liver ([1]; 14 days of repeated dosing, 250 mg/kg/day): nephrosis and alterations in the peripheral lobes of the liver and in the cytoplasm of hepatocytes were evident | light microscopic analysis of the liver ([1]; as early as 6 and 24 hours): increased number of hepatocytic mitotic figures and decreased glycogen content | serum levels of creatinine, BUN, ALT, triglycerides and cholesterol ([1]; as early as 6 hours after the first dose, most markers remained altered throughout the 14 day study period): statistically significant increases

Structure (SMILES): ClC(Cl)(Cl)Cl [CCl4, carbon tetrachloride]
peak increase of ALT and AST levels [2]: 5-10 fold

Structure (SMILES): Cl.Nc1nc2c(Cc3ccsc3)c[nH]c2c(=O)[nH]1.O [CI-1000, 4H-pyrrolo:3,2-d:pyrimidin-4-one, 2-amino-3,5-dihydro-7-(3-thienylmethyl)-monohydrochloride monohydrate]
serum ALT levels [3]: increased serum ALT levels

Structure (SMILES): O=C(O)Cc1ccccc1Nc1c(Cl)cccc1Cl [diclofenac]
jaundice among symptomatic patients [4]: 75 % of the symptomatic patients

effects in liver tissue ([6]; 9 or 90 mg/kg twice a day, after 6 or after 24 hours): no effects were noted | liver cell changes ([6]; after 14 days of treatment at the higher dosage (90 mg/kg twice a day)): abnormal vacuolization of the cytoplasm
Structure (SMILES): CC[C@H](C)C(=O)O[C@H]1C[C@@H](C)C=C2C=C[C@H](C)[C@H](CC[C@@H]3C[C@@H](O)CC(=O)O3)[C@H]21 [lovastatin]
metabolites excreted in the urine [5]: less than 13%

Structure (SMILES): CCCC(CCC)C(=O)O [valproate, n-dipropylacetic acid]
patients with elevated levels of hepatic enzymes [7]: about 40 % of patients
